Data published in ChEMBL document CHEMBL1201862, “PubChem BioAssay data set” (2004).
Each block holds one molecule with its values, some of them ahead of it. The source made the active and inactive calls.

What was measured:
[1] = P. falciparum ATP4 D1247Y mutant growth inhibitors, dose response, NITD609-resistant line, SYBR Green, dry powder (AID 1159571); type: functional, cell-based;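 further: parasites synchronized at ring stage by sorbitol before testing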
[2] = P. falciparum 3D7-ScDHODH growth inhibitors, dose response, SYBR Green, dry powder samples (AID 1159570); type: functional, cell-based;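 further: parasite growth measured after 72 hours of compound exposure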
[3] = HepG2 cell cytotoxicity, dose response, cytotoxicity control, cherry-picked samples (AID 1159577); type: functional, cell-based
[4] = P. falciparum Dd2 growth inhibitors, dose response, SYBR Green, cherry-picked samples (AID 1159567); type: functional, cell-based
[5] = P. falciparum Dd2 growth inhibitors, dose response, SYBR Green, dry powder samples (AID 1159566); type: functional, cell-based;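 further: potency for growth inhibition with lower SYBR green DNA signal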
[6] = inhibitors of Vif binding to APOBEC3G peptide, primary screen, biochemical, TR-FRET, GST-Vif 1-94, biotin-A3G peptide, dose response retest (AID 1117319); type: functional;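 further: TR-FRET signal of purified GST-Vif binding a biotinylated A3G peptide; inhibitors lower the FRET signal by blocking Vif and A3G binding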
[7] = target: Luciferin 4-monooxygenase (Photinus pyralis, UniProt P08659); test: firefly luciferase enzyme inhibitors, dose response, biochemical, luminescence (AID 1891)
Chain of Luciferin 4-monooxygenase (P08659 whole entry): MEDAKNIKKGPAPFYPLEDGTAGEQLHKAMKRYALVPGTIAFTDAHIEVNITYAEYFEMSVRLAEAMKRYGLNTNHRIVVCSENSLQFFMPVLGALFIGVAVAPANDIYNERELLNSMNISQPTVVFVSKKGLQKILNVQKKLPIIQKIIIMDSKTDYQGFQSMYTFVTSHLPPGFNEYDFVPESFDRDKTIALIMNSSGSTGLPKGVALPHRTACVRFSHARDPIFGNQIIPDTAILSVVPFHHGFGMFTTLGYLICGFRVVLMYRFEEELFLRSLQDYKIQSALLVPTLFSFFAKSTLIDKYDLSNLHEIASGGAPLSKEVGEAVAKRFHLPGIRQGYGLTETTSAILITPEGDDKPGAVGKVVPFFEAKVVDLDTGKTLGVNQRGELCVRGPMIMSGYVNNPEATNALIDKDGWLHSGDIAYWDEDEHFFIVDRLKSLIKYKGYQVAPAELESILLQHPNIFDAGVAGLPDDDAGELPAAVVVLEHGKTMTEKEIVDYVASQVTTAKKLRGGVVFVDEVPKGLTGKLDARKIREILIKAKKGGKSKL

[8] = Luminescence Cell-Based Dose Confirmation HTS to Identify Inhibitors of Platelet Dense Granule Release. [Related pubchem assays: 1663 (Primary HTS), 1678 (Summary of Project)]; type: functional
[9] = Vero cell cytotoxicity, dose response, cytotoxicity control for Vif-APOBEC3G degradation inhibitor project, Vero cells (AID 1117358); type: functional; conditions: Human immunodeficiency virus 1, Vero
Coagulation factor XII = target: T1, Coagulation factor XII (Homo sapiens, UniProt P00748); type: functional;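 further: activated factor XIIa alpha cleaving a fluorogenic AMC peptide substrate; inhibitor potency from loss of enzyme activity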
T1 sequence (P00748 whole entry): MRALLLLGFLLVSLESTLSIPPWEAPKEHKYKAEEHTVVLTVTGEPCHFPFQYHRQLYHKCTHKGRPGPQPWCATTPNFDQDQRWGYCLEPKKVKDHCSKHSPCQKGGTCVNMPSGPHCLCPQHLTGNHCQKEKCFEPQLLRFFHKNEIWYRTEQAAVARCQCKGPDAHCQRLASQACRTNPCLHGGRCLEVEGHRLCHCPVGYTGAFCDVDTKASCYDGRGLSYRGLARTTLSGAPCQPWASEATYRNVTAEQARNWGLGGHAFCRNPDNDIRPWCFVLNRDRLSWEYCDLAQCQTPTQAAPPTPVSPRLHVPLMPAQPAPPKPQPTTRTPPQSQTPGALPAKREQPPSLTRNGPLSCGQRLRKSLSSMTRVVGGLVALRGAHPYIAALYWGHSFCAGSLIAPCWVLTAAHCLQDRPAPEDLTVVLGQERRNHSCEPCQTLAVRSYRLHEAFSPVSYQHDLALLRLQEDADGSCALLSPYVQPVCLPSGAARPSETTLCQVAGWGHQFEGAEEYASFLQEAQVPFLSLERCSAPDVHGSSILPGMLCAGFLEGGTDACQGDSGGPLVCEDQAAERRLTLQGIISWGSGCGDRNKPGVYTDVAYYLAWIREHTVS

Caspase-6 = target: T2, Caspase-6 (Homo sapiens, UniProt P55212); test: human caspase-6 inhibitors, dose response, biochemical, VEID-R110 fluorescence, cherry-pick (AID 720632)
T2 sequence (P55212 whole entry): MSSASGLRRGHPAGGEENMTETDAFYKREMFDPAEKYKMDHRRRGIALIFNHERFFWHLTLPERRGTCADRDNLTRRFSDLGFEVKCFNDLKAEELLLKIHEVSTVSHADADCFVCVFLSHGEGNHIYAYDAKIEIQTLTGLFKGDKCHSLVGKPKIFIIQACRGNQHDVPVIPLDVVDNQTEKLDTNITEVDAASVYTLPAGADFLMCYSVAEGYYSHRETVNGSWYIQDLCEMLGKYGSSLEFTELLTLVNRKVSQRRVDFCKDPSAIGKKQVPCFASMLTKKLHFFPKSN

Cytochrome P450 2C19 = Cytochrome P450 2C19 (Homo sapiens, UniProt P33261); test: Cytochrome panel assay with activity outcomes. Panel member name: p450-cyp2c19 Compounds with AC50 equal or less than 10 uM are considered active; type: functional; conditions: read-out: AC50
Chain of Cytochrome P450 2C19 (P33261 whole entry): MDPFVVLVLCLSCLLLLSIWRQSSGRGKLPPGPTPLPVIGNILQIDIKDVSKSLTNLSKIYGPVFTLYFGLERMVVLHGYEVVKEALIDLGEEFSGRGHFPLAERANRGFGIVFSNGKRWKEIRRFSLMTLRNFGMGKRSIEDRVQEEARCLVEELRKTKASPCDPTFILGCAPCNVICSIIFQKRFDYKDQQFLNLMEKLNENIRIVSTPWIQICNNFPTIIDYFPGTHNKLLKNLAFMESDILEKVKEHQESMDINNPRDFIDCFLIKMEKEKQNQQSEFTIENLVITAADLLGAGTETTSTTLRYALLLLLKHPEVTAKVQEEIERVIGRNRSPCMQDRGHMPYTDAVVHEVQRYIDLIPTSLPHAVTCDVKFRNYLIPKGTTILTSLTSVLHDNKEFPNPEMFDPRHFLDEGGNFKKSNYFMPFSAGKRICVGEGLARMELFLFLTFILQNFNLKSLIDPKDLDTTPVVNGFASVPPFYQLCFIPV

Cytochrome P450 1A2 = target: T3, Cytochrome P450 1A2 (Homo sapiens, UniProt P05177);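 further: PubChem cytochrome P450 panel assay, CYP1A2 panel member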
T3 sequence (P05177 whole entry): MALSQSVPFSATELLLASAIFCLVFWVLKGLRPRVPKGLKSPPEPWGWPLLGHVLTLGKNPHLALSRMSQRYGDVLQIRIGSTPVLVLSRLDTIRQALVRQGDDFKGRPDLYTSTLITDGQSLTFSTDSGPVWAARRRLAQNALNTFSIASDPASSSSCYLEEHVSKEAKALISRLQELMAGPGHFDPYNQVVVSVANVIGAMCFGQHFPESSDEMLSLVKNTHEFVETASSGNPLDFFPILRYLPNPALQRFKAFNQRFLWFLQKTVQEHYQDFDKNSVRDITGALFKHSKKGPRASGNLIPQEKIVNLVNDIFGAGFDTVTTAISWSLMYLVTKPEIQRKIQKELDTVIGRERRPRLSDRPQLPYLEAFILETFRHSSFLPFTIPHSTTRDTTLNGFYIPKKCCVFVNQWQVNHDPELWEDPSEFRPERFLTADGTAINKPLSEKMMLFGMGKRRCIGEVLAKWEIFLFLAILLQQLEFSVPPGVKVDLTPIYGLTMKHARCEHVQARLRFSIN

[10] = Artemis endonuclease inhibitor potency, dose response, biochemical, fluorescence intensity (AID 720701); type: functional;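 further: Artemis endonuclease enzyme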
Vero [11] = test: West Nile virus antiviral activity, cell-based, CPE readout (AID 1621); type: functional; conditions: Chlorocebus sabaeus
Vero [12] = test: host cell cytotoxicity of antiviral hits, dose response, cytotoxicity control for West Nile virus antiviral project, secondary assay (AID 1650); type: functional; conditions: Chlorocebus sabaeus
H9c2 = test: cells; type: functional, cell-based; conditions: Rattus norvegicus, H9c2, Myocardium;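 further: confirmatory concentration-response retest of ultra-high-throughput screening hits for modulation of myocardial damage; cell death induced by hydrogen peroxide oxidative stress; compound pretreatment for 60 min then peroxide exposure for 2 h; potency is for protecting the cells against peroxide damage rather than for killing them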
[13] = inhibitors of PGC1a acetylation in cells, dose response, cell-based, cherry-picked samples (AID 720514); type: functional;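 further: potency may reflect raised or lowered acetylation signal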

SMILES: COc1ccc(NC(=O)N(C)C[C@@H]2Oc3c(NC(=O)c4nc5ccccc5s4)cccc3C(=O)N([C@@H](C)CO)C[C@H]2C)cc1
AC50 [1]: 606 nM (active)
AC50 [2]: 499 nM (active)
AC50 [3]: > 39 µM (inactive)
AC50 [4]: 1.96 µM (active)
AC50 [5]: 1.3 µM (active)

IC50 [6]: > 100 µM (active)
SMILES: CC(OC(=O)/C=C/c1ccco1)C(=O)NC1CCCCC1 (stereo not given)

SMILES: COc1ccccc1NC(=O)c1cc2ccc(O)cc2o/c1=N\O
IC50 [6]: > 100 µM (active)
EC50 [7]: 1.03 µM (active)
EC50 [8]: 6.14 µM (active)
CC50 [9]: > 40 µM (active)

SMILES: N#C[C@@H]1[C@H](c2ccc(C#CC3CCCCC3)cc2)[C@@H](CO)N1C(=O)Nc1ccc(F)cc1
AC50 [3]: 14 µM (active)
AC50 [4]: 7.33 µM (active)

IC50 [6]: > 100 µM (active)
IC50 (Coagulation factor XII): > 50 µM (inactive)
SMILES: O=C1CN(C(=O)COC(=O)c2oc3ccccc3c2COc2ccccc2)c2ccccc2N1

SMILES: COc1ccc2c3c(n(C)c2c1)[C@@H](CO)N(C(=O)C1CCC1)CC31CN(C(=O)Nc2cccc(F)c2)C1
AC50 [1]: 535 nM (active)
AC50 [2]: 515 nM (active)
AC50 [4]: 2.35 µM (active)
AC50 [5]: 0.779 µM (active)

AC50 (Caspase-6): 35.4 µM (active)
SMILES: O=C1NC(Cc2ccc(O)cc2)c2nc3ccc(Br)cc3c(=O)n2-c2ncccc21 (stereo not given)

AC50 (Cytochrome P450 2C19): 1.12 µM (inconclusive)
AC50 (Cytochrome P450 1A2): 3.55 µM (inconclusive)
IC50 [10]: > 20 µM (inactive)
SMILES: O=C(N/N=C\c1ccc(-c2ccccc2[N+](=O)[O-])o1)C1COc2cc3ccccc3cc2O1 (stereo not given)

SMILES: COc1ccc(C(=O)Nc2ccc(O)c3c(=O)cc(-c4cccc(Cl)c4)oc23)cc1
IC50 (Vero [11]): > 100 µM (active)
CC50 (Vero [12]): 2.74 µM (active)

SMILES: Cc1nc(NC(=O)c2cc3c(C)nn(-c4ccccc4)c3s2)sc1C(=O)Nc1ccccc1
IC50 (H9c2): > 79 µM (inactive)
IC50 [10]: 1.22 µM (active)

SMILES: CCc1nnc(NC(=O)c2ccc(S(=O)(=O)N(CC(C)C)CC(C)C)cc2)o1
CC50 [9]: > 40 µM (active)

SMILES: C[C@H]1CN([C@@H](C)CO)S(=O)(=O)c2ccc(C#CC3CCCCC3)cc2O[C@@H]1CN(C)Cc1cccnc1
AC50 [13]: 10.4 µM (active)

SMILES: COC(=O)c1c(NC(=O)C(Cl)Cl)sc2c1C(C(=O)OC)CC2 (stereo not given)
IC50 (Vero [11]): 27.8 µM (active)
CC50 (Vero [12]): 34.8 µM (active)
